pIC50: −log10 of the molar value. Blank lines part the entries; values can stand above or below the molecule they belong to.
How the values were obtained:
Recombinant kinase JAK2 = Recombinant kinase JAK2 (Homo sapiens (Human), UniProt O60674); experiment: In vitro JAK kinase inhibition assay (ADP-Glo), JAK2; assay type: biochemical; conditions: 30 μM ATP, peptide IGF-1Rtide, averaged
Procedure: In Vitro JAK Kinase Inhibition Assay
The effects of the compounds of the invention were analysed in vitro using kinase JAK inhibition assay described below.
Tested compounds were dissolved in 100% DMSO, and obtained stock solutions were serially diluted in the reaction buffer (50 mM Tris pH 7.5, 10 mM MgCl2, 0.25 mM EGTA, 0.1 mM Na3VO4, 0.01% Triton X-100, 2.5 mM DTT). Recombinant kinases JAK1 (ProQinase), JAK2, or JAK3 (Carna Biosciences) were diluted in the dilution buffer (50 mM Tris-HCl pH 7.5, 150 mM NaCl, 10% glycerol, 0.05% Triton X-100, 1 mM DTT) to the final concentration 3 ng/μL (JAK1), 0.1 ng/μL (JAK2), or 0.2 ng/μL (JAK3). 5 μL of obtained solution of the compounds and 5 μL of the solution of respective kinases were added to the well of a 96-well plate. To initiate interaction between tested compounds and an enzyme, the plate was incubated for 10 minutes at 25° C. in a Plate-Thermo-Shaker with orbital stirring at 400 rpm. Wells of a negative control contained all reagents as mentioned above with the exception of tested compounds and kinase, and wells of a positive controls contained all reagents as mentioned above with the exception of tested compounds. […] Then the plate was incubated for 1 hour at 25° C. in a Plate-Thermo-Shaker, with orbital stirring at 400 rpm. Detection of ADP formed in the enzymatic reaction was then performed using ADP-Glo Kinase Assay kit (Promega). For this purpose, to the well of the 96-well plate 25 μL of ADP-Glo Reagent were added, and the plate was incubated for 40 minutes at 25° C. in a Plate-Thermo-Shaker with orbital stirring at 400 rpm. Then to the well of the 96-well plate 50 μL of Kinase Detection Reagent were added and the plate was incubated for 30 minutes at 25° C. in a Plate-Thermo-Shaker with orbital stirring at 400 rpm. After incubation, luminescence intensity was measured using Victor×Light luminometer (Perkin Elmer, Inc.).
(§1) On the basis of luminescence measurement in wells containing tested compounds at various concentrations and in control wells, IC50 values were determined. These values were determined with Graph Pad software v. 5.03, by fitting points of the curve using non-linear regression method. Each compound was tested in at least 6 repetitions (6 wells) on two 96-well plates, using at least 3 wells of each control.

TF-1 cells = TF-1 cells viability in vitro in the presence of IL-4 (JAK1/JAK3 activation); assay type: cell-based; conditions: for pIC50: Homo sapiens, TF-1, 20 ng/mL IL-4, 72 hours, ATPlite, read-out: JAK1,3 IL4 (EC50, inhibition of viability of TF-1 cells); for JAK2/JAK1,3 Ratio: ratio of TF-1 viability EC50 with IL3 to EC50 with IL4
Procedure: Assay for TF-1 Cells Viability In Vitro
The effects of the activity of the compounds of the invention were tested in vitro using cells viability assay described below.
Tested compounds were dissolved in 100% DMSO, and obtained stock solutions were serially diluted in OptiMEM medium (Reduced Serum Medium-Thermo Fisher Scientific). TF-1 cells (DSMZ no.: ACC 334) in culture medium (80% RPMI 1640+20% FBS) ad in the presence of 5 ng/mL IL-3 or 20 ng/mL IL-4 were deposited on 96-well plates in the volume of 90 μl per well, 10 thousands of cells per well. To a well of the 96-well plate 10 μL of the prepared 10× stock solutions of the compounds. Cells on 96-well plates were incubated with the compounds for 72 hours at 37° C., 5% CO2. Subsequently, viability of the cells was measured using ATPlite kit (Perkin Elmer). For this purpose, 50 μL of lysis buffer (mammalian cell lysis solution) were added to a well of the 96-well plate and the plate was incubated for 10 minutes at 25° C. in a plate thermo-shaker with orbital stirring at 600 rpm. Then to a well of the 96-well plate 50 μL of substrate (substrate solution) were added and incubated for 15 minutes at in dark, in a plate thermo-shaker with orbital stirring at 600 rpm. After incubation time, luminescence intensity in a well was measured using Victor×Light luminometer (Perkin Elmer, Inc.).
as §1, with “luminescence intensity measurements” for “luminescence measurement”, “in well” for “in wells”, “control wells EC50” for “control wells, IC50”

[1] = system: INFγ secreted by lymphocytes T; experiment: Inhibition of INFγ production by lymphocytes T in vitro; assay type: cell-based; conditions: Lymphocyte, 48 hours, human CD4+ lymphocytes T; for inhibition at 0.01 µM: 10 nM; for inhibition at 0.1 µM: 100 nM; for inhibition at 1 µM: 1000 nM
Procedure: Assay for Inhibition of TNFα and INFγ Production by Lymphocytes T In Vitro
The activity of the compounds of the invention was tested using in vitro assay described below.
Tested compounds were dissolved in 100% DMSO, and obtained stock solutions were serially diluted with OptiMEM medium (Reduced Serum Medium-Thermo Fisher Scientific). Lymhocytes were isolated from leukocyte top coat layer obtained from human peripheral blood. Isolation of peripheral blood mononuclear cells was performed using Ficoll-Paque+Leucosept gradient method, with lymphocytes isolation using CD4+ T Cell Isolation Kit, and activation using T Cell Activation/Expansion Kit (Miltenyi Biotec). Isolated cells in culture medium (90% RPMI 1640+10% FBS) were sived on 12-well plates at 450 μL/well, 300 thousands/well, and 50 μL of prepared 10× stock solutions of tested compounds were added. After 48 hours supernatant was collected for determination of the level of secreted cytokines. Before determination, cells were centrifuged at 1000 g, 10 min. Determination was performed with flow cytometer FACS Calibur using LEGENDplex Human Th cytokine kit. Results are presented in Table 3 as a percentage of inhibition of TNFα i INFγ cytokines secreted by lymphocytes T with reference to control cells.

Chain of Recombinant kinase JAK2 (O60674 whole entry): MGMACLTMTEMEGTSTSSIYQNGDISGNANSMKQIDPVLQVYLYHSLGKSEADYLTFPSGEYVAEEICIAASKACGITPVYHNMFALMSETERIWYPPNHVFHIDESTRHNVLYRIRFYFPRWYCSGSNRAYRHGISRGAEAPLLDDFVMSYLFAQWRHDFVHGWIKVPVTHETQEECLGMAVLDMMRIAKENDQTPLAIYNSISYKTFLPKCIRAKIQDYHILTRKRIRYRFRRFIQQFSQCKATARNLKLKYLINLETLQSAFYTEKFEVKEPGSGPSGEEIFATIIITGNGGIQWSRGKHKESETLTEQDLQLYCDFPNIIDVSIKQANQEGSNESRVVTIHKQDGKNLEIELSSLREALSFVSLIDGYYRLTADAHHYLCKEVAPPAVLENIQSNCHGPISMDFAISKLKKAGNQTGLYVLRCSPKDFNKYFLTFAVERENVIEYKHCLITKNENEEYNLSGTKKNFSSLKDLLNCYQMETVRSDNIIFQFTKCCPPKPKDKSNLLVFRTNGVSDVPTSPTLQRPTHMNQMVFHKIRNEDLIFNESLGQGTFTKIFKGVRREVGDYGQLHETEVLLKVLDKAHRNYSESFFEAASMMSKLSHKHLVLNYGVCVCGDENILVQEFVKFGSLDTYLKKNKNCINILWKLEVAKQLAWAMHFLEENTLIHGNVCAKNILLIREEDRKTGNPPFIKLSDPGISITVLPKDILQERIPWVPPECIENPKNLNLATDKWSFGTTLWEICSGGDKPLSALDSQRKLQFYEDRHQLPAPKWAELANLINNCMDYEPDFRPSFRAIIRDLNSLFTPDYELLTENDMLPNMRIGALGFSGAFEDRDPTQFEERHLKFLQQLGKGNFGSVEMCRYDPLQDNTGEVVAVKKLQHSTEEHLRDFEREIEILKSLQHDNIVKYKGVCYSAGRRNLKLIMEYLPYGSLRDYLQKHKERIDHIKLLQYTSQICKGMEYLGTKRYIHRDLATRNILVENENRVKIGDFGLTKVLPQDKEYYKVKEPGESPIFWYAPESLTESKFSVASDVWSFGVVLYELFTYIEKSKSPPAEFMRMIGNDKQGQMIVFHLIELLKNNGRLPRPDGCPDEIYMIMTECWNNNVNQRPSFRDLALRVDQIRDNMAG

pIC50 (Recombinant kinase JAK2): 7.56
SMILES: COc1ccc(-c2cc3ncc(C(N)=O)c(N[C@@H]4CCN(c5ccc(C#N)nn5)CC4(C)C)n3n2)cn1 [Example 4, (R)-7-((1-(6-Cyanopyridazin-3-yl)-3,3-dimethylpiperidin-4-yl)amino)-2-(6-methoxy-pyridin-3-yl)pyrazolo[1,5-a]pyrimidine-6-carboxamide]
pIC50 (TF-1 cells): 7.16 | JAK2/JAK1,3 Ratio (TF-1 cells): 10.3 | inhibition at 0.01 µM [1]: 80.9% | inhibition at 0.1 µM [1]: 86.5% | inhibition at 1 µM [1]: 95.6%

pIC50 (Recombinant kinase JAK2): 8.47
SMILES: CC1(C)CN(c2ccc(C#N)nn2)CC[C@H]1Nc1c(C(N)=O)cnc2cc(-c3ccc(N4CCOCC4)nc3)nn12 [Example 7, (R)-7-((1-(6-Cyanopyridazin-3-yl)-3,3-dimethylpiperidin-4-yl)amino)-2-(6-morpholinopyridin-3-yl)pyrazolo[1,5-a]pyrimidine-6-carboxamide]
pIC50 (TF-1 cells): 7.44 | JAK2/JAK1,3 Ratio (TF-1 cells): 7.8 | inhibition at 0.01 µM [1]: 73.6% | inhibition at 0.1 µM [1]: 74.6% | inhibition at 1 µM [1]: 98.1%

pIC50 (Recombinant kinase JAK2): 8.93
SMILES: COc1cccc(-c2cc3ncc(C(N)=O)c(N[C@@H]4CCN(c5ccc(C#N)nn5)CC4(C)C)n3n2)n1 [Example 11, (R)-7-((1-(6-Cyanopyridazin-3-yl)-3,3-dimethylpiperidin-4-yl)amino)-2-(6-methoxy-pyridin-2-yl)pyrazolo[1,5-a]pyrimidine-6-carboxamide]
pIC50 (TF-1 cells): 7.21 | JAK2/JAK1,3 Ratio (TF-1 cells): 7.4 | inhibition at 0.01 µM [1]: 88.8% | inhibition at 0.1 µM [1]: 93.5% | inhibition at 1 µM [1]: 81.4%

pIC50 (Recombinant kinase JAK2): 8.30
SMILES: Cc1cc(-c2cc3ncc(C(N)=O)c(N[C@@H]4CCN(c5ccc(C#N)nn5)CC4(C)C)n3n2)ccn1 [Example 12, (R)-7-((1-(6-Cyanopyridazin-3-yl)-3,3-dimethylpiperidin-4-yl)amino)-2-(2-methyl-pyridin-4-yl)pyrazolo[1,5-a]pyrimidine-6-carboxamide]
pIC50 (TF-1 cells): 7.51 | JAK2/JAK1,3 Ratio (TF-1 cells): 11.6 | inhibition at 0.01 µM [1]: 86.2% | inhibition at 0.1 µM [1]: 88% | inhibition at 1 µM [1]: 93%

From patent US11072619B2, “Pyrazole[1,5-a] pyrimidine derivatives as kinase JAK inhibitors” (CELON PHARMA S.A., priority 2017, dated 2021)
